Results: paper PMC6152156 (Molecules : A Journal of Synthetic Chemistry and Natural …, 2017)
Like-named read-outs stand apart in the source and are kept apart here.

How the values were obtained:
Format in all cases: biochemical
BuChE [1] = target: T1, BuChE (Homo sapiens, UniProt P06276); assay: In vitro BuChE inhibitory assay (Ellman-type, human plasma); settings: BuChE from human plasma, BuSCh substrate, 60 min, 37 °C
T1 construct: BuChE was obtained from human plasma (purchased from Beijing Red Cross Blood Center China); tissue Beijing Red Cross Blood Center China; host or cells: human plasma, diluted 200-fold with 0.05 M PBS
Experimental: BuChE was obtained from human plasma (purchased from Beijing Red Cross Blood Center China). Before utilization, human plasma was diluted 200-fold with 0.05 M PBS. Five serial dilutions of samples are determined to obtain BuChE inhibitory activity. The BuChE reaction system is similar to the assay above, including 10 μL samples, 40 μL diluted plasma sample, 70 μL 7.5 mM S-butyrylthiocholine (BuSCh), and 80 μL 0.25 mg/mL DTNB. After incubation at 37 °C for 60 min, the absorbance intensity of the system was measured at wavelength 412 nm.

AChE [2] = target: T2, AChE (Rattus norvegicus, UniProt P37136); assay: In vitro AChE inhibitory assay (Ellman's method)
T2 construct: AChE was derived from the SD rat brains by homogenizing the brain with 20-fold saline solution; from tissue; host or cells: SD rat brain homogenate (supernatant after 800 x g)
Experimental: The AChE inhibitory activity of DL0410 derivatives was assessed by determining the hydrolysis product of Acetylthiocholine iodide (ASCh) using the Ellman’s method. 5,5′-Dithiobis (2-nitrobenzoic acid) (DTNB), and the substrate ASCh were purchased from Sigma Aldrich. AChE was derived from the SD rat brains by homogenizing the brain with 20-fold saline solution, and then centrifuged at 800× g for 20 min at 4 °C. To acquire the inhibition of AChE activity, five serial dilutions of samples were measured. A Spectra Max M5 microplate reader (Molecular Devices, Sunnyvale, CA, USA) was utilized for the assay for AChE reaction system with 96-well plates in 0.05 M phosphate-buffered solution (PBS). The reaction system includes 10 μL sample, 20 μL AChE solution, 60 μL 3.75 mM ASCh, and 80 μL 0.25 mg/mL DTNB. It took 60 min at 37 °C for incubation, and the absorbance intensity of AChE reaction system was quantified at 412 nm.

BuChE [3] = target: T1, BuChE; assay: BuChE kinetic study (Lineweaver-Burk and Dixon plots); settings: for Ki: Dixon plot, inhibitor 0.3, 1, 3 μM, five substrate concentrations, n = 3; for type of inhibition of BuChE: Lineweaver-Burk plot
Experimental: (§1) To have an insight into how structure modification affected the inhibitory activities, molecular docking and kinetics studies were performed for DL0410, compounds 6-1 and 7-6. After the docking parameters were set, the crystal poses of donepezil and N-((1-benzylpiperidin-3-yl)methyl)-N-(2-methoxyethyl) naphthalene-2-sulfonamide were first re-docked into the binding site pocket of AChE and BuChE, respectively. Donepezil is a mixed-type inhibitor of AChE used in the palliative treatment of AD [25]. N-((1-benzylpiperidin-3-yl)methyl)-N-(2-methoxyethyl) naphthalene-2-sulfonamide is a potent, selective, and reversible human BuChE inhibitor, which can improve memory, cognitive functions, and learning abilities. The root mean square deviation (RMSD) values between the docking and initial poses were 0.872 and 1.253, respectively, which implied that the docking models built by CDOCKER could reproduce the crystal binding model and were suitable for the AChE and BuChE system. DL0410 and two highly inhibitory compounds (compounds 6-1 and 7-6) were docked to the active pockets of AChE and BuChE. For AChE, these three compounds could dock to TRP86 of CAS via π-Alkyl interaction or electrostatic attraction, near the bottom of the active site gorge, and TRP286 of PAS via π-π stacking interaction, near its entrance (Figure 4). The value of –CDOCKER INTERACTION ENERGY was followed by compound 6-1 > compound 7-6 > DL0410. The dibenzofuran of compound 6-1 formed stronger π-π stacking interaction with TYR341 and TRP286, and the carbonyl formed hydrogen bond with TYR72. In addition, hydrogen bond interaction of compound 7-6 made it high inhibition for AChE. […] There existed more hydrogen bonds for compound 7-6, and a highly electronegative fluorine atom caused its strong interaction with GLY116. Therefore, the fluorine atom substitution and the structure of dibenzofuran made compounds 6-1 and 7-6 different from DL0410. Compound 7-6 formed more hydrogen bonds with AChE and BuChE. The structure of dibenzofuran caused the extension direction of compound 6-1 to change, which was more conducive to forming electrostatic attractive interactions. In silico results were consistent with the kinetics studies of AChE and BuChE. […] The inhibition kinetic data were analyzed by Lineweaver-Burk and Dixon plots. The Lineweaver-Burk plot provides a useful means of distinguishing among competitive inhibition, non-competitive inhibition, and mixed inhibition, whereas the merit of the Dixon plot is that one can expediently determine Ki from the kinetic data. […] The results of the kinetics studies also validated that the three compounds were, indeed, capable of binding to CAS and PAS of AChE/BuChE. The PAS site could […] their catalytic efficiency, which led to high inhibitory effects.
(§2) Figure 6 The Lineweaver-Burk plots of DL0410, compound 6-1 and compound 7-6 on AChE inhibitory activity (A–C). The Lineweaver-Burk plots of DL0410, compound 6-1 and compound 7-6 on BuChE inhibitory activity (D–F). Kinetic analysis of AChE and BuChE was performed by using three effective concentrations of DL0410, compound 6-1 and compound 7-6 (0.1, 0.3, 1 μM for AChE, and 0.3, 1, 3 μM for BuChE) with the incubation of five different substrate concentrations (1.25, 2.5, 5, 10, 20 mM for AChE, and 2, 4, 8, 16, 32 mM for BuChE). […] (n = 3; a = mM^−1; b = min/ΔA).
(§3) Figure 7 Ki values were determined by Dixon plots. […] Figure D–F presented the Dixon plots of DL0410, compound 6-1 and compound 7-6 on BuChE inhibitory activity, respectively. […] (n = 3; b = min/ΔA).
(§4) It is important to determinate the type of inhibition in an effort to understand the mechanism of inhibition and the binding sites of the inhibitor sites. […]

AChE [4] = target: T2, AChE; assay: AChE kinetic study (Lineweaver-Burk and Dixon plots); settings: for Ki: Dixon plot, inhibitor 0.1, 0.3, 1 μM, substrate 1.25-20 mM, n = 3; for type of inhibition of AChE: Lineweaver-Burk plot
Experimental: as §1, §2, §3, §4

[5] = AChE from SD rat brain homogenate, ASCh substrate, 60 min, 37 °C, read-out: IC50(μM) AChE

T2 sequence (P37136 32-614): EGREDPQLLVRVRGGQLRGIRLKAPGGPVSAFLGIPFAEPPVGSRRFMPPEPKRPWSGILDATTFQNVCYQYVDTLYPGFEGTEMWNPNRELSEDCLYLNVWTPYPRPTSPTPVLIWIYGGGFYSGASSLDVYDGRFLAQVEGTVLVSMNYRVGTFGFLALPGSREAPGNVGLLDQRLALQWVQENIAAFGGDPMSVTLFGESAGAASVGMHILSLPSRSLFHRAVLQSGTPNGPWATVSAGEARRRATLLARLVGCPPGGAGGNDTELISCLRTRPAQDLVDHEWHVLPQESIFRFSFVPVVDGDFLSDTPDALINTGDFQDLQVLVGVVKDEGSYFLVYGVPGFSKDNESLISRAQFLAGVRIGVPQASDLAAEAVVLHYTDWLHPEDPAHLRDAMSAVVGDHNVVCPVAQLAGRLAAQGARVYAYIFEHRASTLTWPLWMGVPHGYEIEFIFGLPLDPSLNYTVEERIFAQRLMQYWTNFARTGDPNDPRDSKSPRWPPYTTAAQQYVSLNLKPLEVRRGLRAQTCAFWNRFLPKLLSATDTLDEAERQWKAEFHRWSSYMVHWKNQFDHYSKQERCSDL
T1 sequence (P06276 29-602): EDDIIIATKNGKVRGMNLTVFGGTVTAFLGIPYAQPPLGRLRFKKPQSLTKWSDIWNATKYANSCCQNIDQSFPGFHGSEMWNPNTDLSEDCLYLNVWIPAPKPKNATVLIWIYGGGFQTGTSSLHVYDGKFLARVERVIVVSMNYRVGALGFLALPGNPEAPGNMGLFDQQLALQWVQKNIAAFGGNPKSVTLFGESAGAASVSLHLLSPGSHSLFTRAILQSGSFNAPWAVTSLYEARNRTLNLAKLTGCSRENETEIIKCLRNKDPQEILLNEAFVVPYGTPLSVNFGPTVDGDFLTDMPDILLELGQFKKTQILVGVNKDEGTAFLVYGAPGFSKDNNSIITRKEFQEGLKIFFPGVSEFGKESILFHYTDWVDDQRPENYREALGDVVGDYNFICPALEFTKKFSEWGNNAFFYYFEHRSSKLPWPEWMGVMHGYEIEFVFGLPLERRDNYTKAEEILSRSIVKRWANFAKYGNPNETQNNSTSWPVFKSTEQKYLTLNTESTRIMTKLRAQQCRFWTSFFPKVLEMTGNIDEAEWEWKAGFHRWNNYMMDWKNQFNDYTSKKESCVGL

Structure (SMILES) | IC50 (BuChE [1]; read-out: IC50(μM) BuChE) | IC50 (AChE [2]; [5]) | further results
O=C(CCN1CCCCC1)c1ccc2sc3ccc(C(=O)CCN4CCCCC4)cc3c2c1 [Compound 6-2] | 1.71 µM | 2.03 µM | –
CC(C)(c1ccc(C(=O)CCN2CCOCC2)cc1)c1ccc(C(=O)CCN2CCOCC2)cc1 [Compound 4-5] | 16.3 µM | 15.7 µM | –
CCN(C)C(=O)Oc1ccc(-c2ccc(OC(=O)N(C)CC)cc2)cc1 [Compound 7-3] | – | – | IC50 (BuChE [1]; IC50(μM) BuChE): 0.06 µM; IC50 (AChE [2]): 34.1 µM
O=C(CCN1CCCCC1)c1ccc(-c2ccc(C(=O)CN3CCCCC3)cc2)cc1 [Compound 1-6] | 4.87 µM | 3.32 µM | –
O=C(CCCCN1CCC1)c1ccc(CCc2ccc(C(=O)CCCCN3CCC3)cc2)cc1 [Compound 2-6] | > 200 µM | 12.2 µM | –
O=C(CCN1CCCCC1)c1ccc2oc3ccc(C(=O)CCN4CCCCC4)cc3c2c1 [Compound 6-1] | 0.61 µM | 0.06 µM | Ki (BuChE [3]): 0.74 ± 0.16 µM; type of inhibition of BuChE (BuChE [3]): mixed-type; Ki (AChE [4]): 0.42 ± 0.04 µM; type of inhibition of AChE (AChE [4]): mixed-type
CN(C)CCC(=O)c1ccc(C(C)(C)c2ccc(C(=O)CCN(C)C)cc2)cc1 [Compound 4-1] | 6 µM | 4.89 µM | –
CN(C)CC(=O)c1ccc(C(C)(C)c2ccc(C(=O)CN(C)C)cc2)cc1 [Compound 4-2] | 5.95 µM | 54.4 µM | –
O=C(CCN1CCCCC1)c1ccc(-c2ccc(C(=O)CCN3CCCCC3)cc2F)cc1 [Compound 7-6] | 0.44 µM | 0.03 µM | Ki (BuChE [3]): 1.63 ± 0.18 µM; type of inhibition of BuChE (BuChE [3]): mixed-type; Ki (AChE [4]): 0.55 ± 0.2 µM; type of inhibition of AChE (AChE [4]): mixed-type
O=C(CCN1CCCCC1)c1ccc2c(c1)c1cc(C(=O)CCN3CCCCC3)ccc1n2C(=O)CCN1CCCCC1 [Compound 7-7] | 4.79 µM | 1.42 µM | –
CN1CCN(CCC(=O)c2ccc(Cc3ccc(C(=O)CCN4CCN(C)CC4)cc3)cc2)CC1 [Compound 3-4] | 24.4 µM | 7.55 µM | –
CN(C)CCC(=O)c1ccc(Cc2ccc(C(=O)CCN(C)C)cc2)cc1 [Compound 3-5] | 1.72 µM | 3.32 µM | –
O=C(CCN1CCCCC1)c1ccc(Cc2ccc(C(=O)CCN3CCCCC3)cc2)cc1 [Compound 3-1] | 4.2 µM | 4.11 µM | –
CN(CCC(=O)c1ccc(-c2ccc(C(=O)CCN(C)Cc3ccccc3)cc2)cc1)Cc1ccccc1 [Compound 1-17] | 6.56 µM | 3.33 µM | –
O=C(COCCN1CCCCC1)c1ccc(-c2ccc(C(=O)OCCN3CCCCC3)cc2)cc1 [Compound 7-4] | > 200 µM | 18.5 µM | –
CN(C)CCCCC(=O)c1ccc(CCc2ccc(C(=O)CCCCN(C)C)cc2)cc1 [Compound 2-10] | 2.77 µM | 3.96 µM | –
O=C(CCCN1CCCCC1)c1ccc(-c2ccc(C(=O)CCN3CCCCC3)cc2)cc1 [Compound 1-5] | 1.88 µM | 0.41 µM | –
O=C(CCNC1CCCCC1)c1ccc(-c2ccc(C(=O)CCNC3CCCCC3)cc2)cc1 [Compound 1-16] | 1.91 µM | 2.15 µM | –

Structure (SMILES) | IC50 (BuChE [1]; read-out: IC50(μM) BuChE) | IC50 (AChE [2]; [5]) | further results
O=C(CCN1CCCCC1)c1ccc(Sc2ccc(C(=O)CCN3CCCCC3)cc2)cc1 [Compound 5-2] | 3.44 µM | 3.89 µM | –
COc1ccc2[nH]cc(CCNCC(=O)c3ccc(-c4ccc(C(=O)CNCCc5c[nH]c6ccc(OC)cc56)cc4)cc3)c2c1 [Compound 1-18] | > 200 µM | 9.52 µM | –
O=C(CCN1CCCCC1)c1ccc(Oc2ccc(C(=O)CCN3CCCCC3)cc2)cc1 [Compound 5-1] | 5.68 µM | 0.89 µM | –
C=C(CN1CCCCC1)C(=O)c1ccc(-c2ccc(C(=O)C(=C)CN3CCCCC3)cc2)cc1 [Compound 7-2] | 1.55 µM | 17.1 µM | –
O=C(CCN1CCCCC1)c1ccc(CCc2ccc(C(=O)CCN3CCCCC3)cc2)cc1 [Compound 2-3] | 3.41 µM | – | –
CN(C)CCC(=O)c1ccc(-c2ccc(C(=O)CCN(C)C)cc2)cc1 [Compound 1-8] | < 1 µM | – | –
CN1CCN(CC(=O)c2ccc(Cc3ccc(C(=O)CN4CCN(C)CC4)cc3)cc2)CC1 [Compound 3-3] | 40 µM | 48.5 µM | –
O=C(c1ccc(-c2ccc(C(=O)N3CCCCC3)cc2)cc1)N1CCCCC1 [Compound 1-2] | 2.22 µM | 0.84 µM | –
CC(C)(c1ccc(C(=O)CN2CCCCC2)cc1)c1ccc(C(=O)CN2CCCCC2)cc1 [Compound 4-4] | 2.93 µM | 17.4 µM | –
CC(C)(c1ccc(C(=O)CCN2CCCCC2)cc1)c1ccc(C(=O)CCN2CCCCC2)cc1 [Compound 4-3] | 3.09 µM | 3.07 µM | –
O=C(CCN1CCC(N2CCCCC2)CC1)c1ccc(-c2ccc(C(=O)CCN3CCC(N4CCCCC4)CC3)cc2)cc1 [Compound 1-19] | > 200 µM | 0.25 µM | –
O=C(CCN1CCOCC1)c1ccc(Cc2ccc(C(=O)CCN3CCOCC3)cc2)cc1 [Compound 3-2] | 7.65 µM | 7.09 µM | –
O=C(CCN1CCOCC1)c1ccc(-c2ccc(C(=O)CCN3CCOCC3)cc2)cc1 [Compound 1-15] | < 1 µM | – | –
CCN(CC)CCC(=O)c1ccc(-c2ccc(C(=O)CCN(CC)CC)cc2)cc1 [Compound 1-9] | < 1 µM | – | –
CC1CCN(CC(=O)c2ccc(-c3ccc(C(=O)CN4CCC(C)CC4)cc3)cc2)CC1 [Compound 1-7] | 36.6 µM | 49.1 µM | –
O=C(CCN1CCCCC1)c1ccc([S+]([O-])c2ccc(C(=O)CCN3CCCCC3)cc2)cc1 [Compound 5-3] | > 200 µM | 14.1 µM | –
O=C(CN1CCCCC1)c1ccc(CCc2ccc(C(=O)CN3CCCCC3)cc2)cc1 [Compound 2-1] | – | 75.5 µM | –
CCN(C)C(=O)Oc1ccc(-c2ccc(C(=O)CCN3CCCCC3)cc2)cc1 [Compound 7-5] | – | – | IC50 (BuChE [1]; IC50(μM) BuChE): 0.2 µM; IC50 (AChE [2]): 3.35 µM
